Laboratory results as given in patent US12398154B2, “Azaquinazoline pan-KRas inhibitors” (Mirati Therapeutics, Inc., priority 2020, dated 2025).

Experiments:
KRas G12D = KRas G12D (Homo sapiens, UniProt P01116, G12D); experiment: biochemical;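 note: TR-FRET displacement binding assay on KRas, read after a one-hour incubation at room temperature, IC50 fitted from percent-of-control values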
Experimental: (§1) The ability of a compound to bind to KRas was measured using a TR-FRET displacement assay. […] After a 60-minute incubation at room temperature, the reaction was measured using a BMG LABTECH CLARIO star Plus via TR-FRET. […] The POC values were fit to a 4-parameter IC50 equation and the IC50 value reported.

KRas G12V = KRas G12V (Homo sapiens, UniProt P01116, G12V); experiment: biochemical;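 note: KRas binding measured by TR-FRET displacement at room temperature, IC50 fitted from percent of control values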
Experimental: as §1

KRas G12R = KRas G12R (Homo sapiens, UniProt P01116, G12R); experiment: biochemical;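 note: TR-FRET displacement assay of compound binding to KRas, read after one hour at room temperature, potency from a four-parameter fit of percent-of-control values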
Experimental: as §1

KRas G12A = KRas G12A (Homo sapiens, UniProt P01116, G12A); experiment: biochemical;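 note: binding to KRas measured by TR-FRET displacement after one hour at room temperature, IC50 from a four-parameter fit of percent-of-control values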
Experimental: as §1

KRas G12S = KRas G12S (Homo sapiens, UniProt P01116, G12S); experiment: biochemical;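 note: TR-FRET displacement binding to KRas, read after one hour incubation at room temperature, IC50 from four-parameter fit of percent of control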
Experimental: as §1

KRas G12C = KRas G12C (Homo sapiens, UniProt P01116, G12C); experiment: biochemical;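 note: binding to KRas assessed by TR-FRET displacement after one hour incubation at room temperature, potency fitted from percent-of-control values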
Experimental: as §1

KRas WT = KRas WT (Homo sapiens, UniProt P01116); experiment: biochemical;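 note: binding to KRas read as TR-FRET displacement after a one-hour room-temperature incubation, IC50 derived from percent-of-control values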
Experimental: as §1

pERK in MKN1 cells = experiment: Inhibition of KRas phosphorylation of ERK (Cisbio HTRF pERK assay); conditions: Homo sapiens, MKN-1, 3 h, read-out: Inhibition (HTRF IC50) of KRas-mediated Phosphorylation of ERK, MKN1
Experimental: (§2) To harvest cells from flask using 0.05% Trypsin/EDTA solution. Add 10 mL of media to stop trypsinizing. Pipette the cells into a conical bottom 50 mL centrifuge tube and centrifuge 5 min×1000 rpm. • 2. Re-suspend the cell pellet in media, take a cell count, and then adjust the cell density using fresh media. • 3. Seed 6,000 cells into cell culture plate with 50 μL media. […] Incubate cell plate overnight in a 37° C., 5% CO2 incubator. • Compound titrations • 1. Use Tecan to complete the compound addition. Compounds start from 10 uM top, 3-fold dilution, and 10 doses. The final DMSO concentration is 0.8%. Dispensed 0.2 uM Trametinib as Min control. • 2. Incubate cell plate for 3 hrs in the incubator. • Detection with cisbio pERK HTRF kit • 1. […] At the end of the compound treatment, flick-off the media. • 3. Add 35 μL of lysis buffer per well using a Multidrop Combi. Then place on a plate agitator shaking at 300 rpm at 4° C. for 40 mins. • 4. Make up the HTRF antibody buffer. For each assay plate, mix 50 μL of d2-conjugate antibody with 950 μL of detection buffer. Similarly, mix 50 μL of Cryptate antibody with 950 μL of detection buffer. Then mix the two diluted antibodies together. • 5. Dispense 3.4 μL the antibody buffer to wells of an empty assay plate. Seal the plate and centrifuge plate 30 sec×1000 rpm. • 6. At the end of the 4° C. lysis, centrifuge the lysate plates 3 mins×1500 rpm. • 7. Use the Bravo to transfer 13.6 μL of lysate from cell culture plate to assay plate.
(§3) Then incubate assay plate for 2 hrs at room temperature. […] At the end of incubation, read plate on the Envision after centrifuging plate 30 sec× • 1000 rpm.

pERK in PSN1 cells = experiment: as above; conditions: Homo sapiens, PSN1, 3 h, read-out: Inhibition (HTRF IC50) of KRas-mediated Phosphorylation of ERK, PSN1
Experimental: as §2, §3

pERK in ASPC1 cells = experiment: as above; conditions: Homo sapiens, ASPC1, read-out: Inhibition (HTRF IC50) of KRas-mediated Phosphorylation of ERK, AsPC-1

Chain of KRas G12S (P01116 1-169 isoform P01116-2 G12S): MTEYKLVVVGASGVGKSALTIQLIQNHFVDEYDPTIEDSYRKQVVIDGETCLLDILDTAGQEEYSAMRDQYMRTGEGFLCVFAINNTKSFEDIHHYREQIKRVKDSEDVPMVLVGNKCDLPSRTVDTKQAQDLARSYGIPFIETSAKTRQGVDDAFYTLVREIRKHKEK
Chain of KRas G12C (P01116 1-169 isoform P01116-2 G12C): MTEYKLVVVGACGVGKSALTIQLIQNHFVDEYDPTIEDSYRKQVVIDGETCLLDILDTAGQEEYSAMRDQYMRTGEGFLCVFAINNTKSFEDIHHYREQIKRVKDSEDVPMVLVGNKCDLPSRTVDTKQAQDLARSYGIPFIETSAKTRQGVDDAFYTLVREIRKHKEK
Chain of KRas G12A (P01116 1-169 isoform P01116-2 G12A): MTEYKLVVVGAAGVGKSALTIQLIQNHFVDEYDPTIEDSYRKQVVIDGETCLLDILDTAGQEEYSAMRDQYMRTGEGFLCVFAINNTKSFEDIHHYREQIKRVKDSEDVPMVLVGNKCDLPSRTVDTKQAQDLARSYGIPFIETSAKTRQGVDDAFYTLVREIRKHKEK
Chain of KRas G12R (P01116 1-169 isoform P01116-2 G12R): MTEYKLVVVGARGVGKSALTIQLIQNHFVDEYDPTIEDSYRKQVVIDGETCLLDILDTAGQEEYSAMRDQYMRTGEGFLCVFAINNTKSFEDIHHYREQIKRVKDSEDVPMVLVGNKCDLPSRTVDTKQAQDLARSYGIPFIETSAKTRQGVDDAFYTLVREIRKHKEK
Chain of KRas G12D (P01116 1-169 isoform P01116-2 G12D): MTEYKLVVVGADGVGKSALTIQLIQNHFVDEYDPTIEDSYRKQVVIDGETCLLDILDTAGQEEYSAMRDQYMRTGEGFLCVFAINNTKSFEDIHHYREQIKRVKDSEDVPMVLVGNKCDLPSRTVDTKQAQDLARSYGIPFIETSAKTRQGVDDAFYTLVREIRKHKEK
Chain of KRas G12V (P01116 1-169 isoform P01116-2 G12V): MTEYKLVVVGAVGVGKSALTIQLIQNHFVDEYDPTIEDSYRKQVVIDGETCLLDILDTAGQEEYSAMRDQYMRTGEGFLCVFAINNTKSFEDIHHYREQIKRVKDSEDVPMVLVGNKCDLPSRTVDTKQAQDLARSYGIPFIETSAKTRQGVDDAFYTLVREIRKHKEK
Chain of KRas WT (P01116 1-169 isoform P01116-2): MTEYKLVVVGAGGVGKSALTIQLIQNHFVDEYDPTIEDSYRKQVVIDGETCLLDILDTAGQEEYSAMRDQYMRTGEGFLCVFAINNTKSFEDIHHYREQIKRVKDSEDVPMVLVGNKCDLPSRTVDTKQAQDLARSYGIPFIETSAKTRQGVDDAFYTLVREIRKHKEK

Row | IC50 (KRas G12D) [nM] | IC50 (KRas G12V) [nM] | IC50 (KRas G12R) [nM] | IC50 (KRas G12A) [nM] | IC50 (KRas G12S) [nM] | IC50 (KRas G12C) [nM] | IC50 (KRas WT) [nM] | IC50 (pERK in MKN1 cells) [nM] | IC50 (pERK in PSN1 cells) [nM] | IC50 (pERK in ASPC1 cells) [nM] | Compound
1 | 915 | 651 | 1020 | 968 | 1140 | 1110 | 1480 | – | – | – | O=C1CC2(CCCN(c3nc(OCC45CCCN4CCC5)nc4c(F)c(-c5cccc6cccc(C(F)(F)F)c56)ncc34)C2)N1 (stereo not drawn) [Example 467, 6-(8-fluoro-2-((hexahydro-1H-pyrrolizin-7a-yl)methoxy)-7-(8-(trifluoromethyl)naphthalen-1-yl)pyrido[4,3-d]pyrimidin-4-yl)-1,6-diazaspiro[3.5]nonan-2-one]
2 | 510 | 844 | 1720 | 758 | 690 | 550 | 714 | – | – | – | CC1(O)CCCN(c2nc(OCC34CCCN3CCC4)nc3c(F)c(-c4cccc5cccc(C6CC6)c45)ncc23)C1 (stereo not drawn) [Example 440, 1-(7-(8-cyclopropylnaphthalen-1-yl)-8-fluoro-2-((hexahydro-1H-pyrrolizin-7a-yl)methoxy)pyrido[4,3-d]pyrimidin-4yl)-3-methylpiperidin-3-ol]
3 | 274 | 569 | 1120 | 559 | 459 | 484 | 467 | – | – | – | O=C1NCC2(CCCN(c3nc(OCC45CCCN4CCC5)nc4c(F)c(-c5cccc6cccc(CO)c56)ncc34)C2)N1 (stereo not drawn) [Example 453, 7-(8-fluoro-2-((hexahydro-1H-pyrrolizin-7a-yl)methoxy)-7-(8-(hydroxymethyl)naphthalen-1-yl)pyrido[4,3-d]pyrimidin-4-yl)-1,3,7-triazaspiro[4.5]decan-2-one]
4 | 406 | 355 | 503 | 347 | 341 | 348 | 475 | – | – | – | O=C1CC2(CCCN(c3nc(OCC45CCCN4CCC5)nc4c(F)c(-c5cccc6cccc(CCF)c56)ncc34)C2)N1 (stereo not drawn) [Example 470, 6-(8-fluoro-7-(8-(2-fluoroethyl)naphthalen-1-yl)-2-((hexahydro-1H-pyrrolizin-7a-yl)methoxy)pyrido[4,3-d]pyrimidin-4-yl)-1,6-diazaspiro[3.5]nonan-2-one]
5 | 2880 | 2310 | 2900 | 2810 | 2480 | 2410 | 3020 | – | – | – | O=C1CC2(CCCN(c3nc(OCC45CCCN4CCC5)nc4c(F)c(-c5cccc6cccc(CF)c56)ncc34)C2)N1 (stereo not drawn) [Example 468, 6-(8-fluoro-7-(8-(fluoromethyl)naphthalen-1-yl)-2-((hexahydro-1H-pyrrolizin-7a-yl)methoxy)pyrido[4,3-d]pyrimidin-4-yl)-1,6-diazaspiro[3.5]nonan-2-one]
6 | 3890 | 5440 | 6860 | 4910 | 5640 | 4840 | 4450 | – | – | – | Cc1cc(N)nc(-c2ncc3c(N4CCC[C@@](C)(O)C4)nc(OC[C@@H]4CCCN4C)nc3c2F)c1C(F)(F)F [Example 435, (R)-1-(7-(6-amino-4-methyl-3-(trifluoromethyl)pyridin-2-yl)-8-fluoro-2-(((S)-1-methylpyrrolidin-2-yl)methoxy)pyrido[4,3-d]pyrimidin-4-yl)-3-methylpiperidin-3-ol]
7 | 130 | 11 | 9 | – | – | – | – | 622 | ≥ 10000 | ≥ 10000 | CCc1c(F)ccc2cc(O)cc(-c3ncc4c(NC[C@@H]5COC[C@@H]5O)nc(OC[C@@]56CCCN5C[C@H](F)C6)nc4c3F)c12 (single isomer, unassigned) [Example 493]
8 | 22 | 27 | 51 | – | – | – | – | ≥ 10000 | ≥ 10000 | ≥ 10000 | CCc1c(F)ccc2cc(O)cc(-c3ncc4c(N5C[C@@H]6C(CO)NC(=O)[C@@H]6C5)nc(OC[C@@]56CCCN5C[C@H](F)C6)nc4c3F)c12 (stereo in doubt) [Example 488, (3R,3aR,6aS)-5-(7-(8-ethyl-7-fluoro-3-hydroxynaphthalen-1-yl)-8-fluoro-2-(((2R,7aS)-2-fluorotetrahydro-1H-pyrrolizin-7a(5H)-yl)methoxy)pyrido[4,3-d]pyrimidin-4-yl)-3-(hydroxymethyl)hexahydropyrrolo[3,4-c]pyrrol-1(2H)-one]
9 | 84 | 15 | 14 | – | – | – | – | 254 | ≥ 10000 | 3520 | CCc1c(F)ccc2cc(O)cc(-c3ncc4c(NC[C@H]5COC[C@H]5O)nc(OC[C@@]56CCCN5C[C@H](F)C6)nc4c3F)c12 (single isomer, unassigned) [Example 492]

Further lines, the molecule ahead of its results:

Row | Compound | IC50 (KRas G12D) [nM] | IC50 (KRas G12V) [nM] | IC50 (KRas G12R) [nM] | IC50 (KRas G12A) [nM] | IC50 (KRas G12S) [nM] | IC50 (KRas G12C) [nM] | IC50 (KRas WT) [nM] | IC50 (pERK in MKN1 cells) [nM] | IC50 (pERK in PSN1 cells) [nM] | IC50 (pERK in ASPC1 cells) [nM]
10 | O=C1NCC2(CCCN(c3nc(OCC45CCCN4CCC5)nc4c(F)c(-c5cccc6cccc(Cl)c56)ncc34)C2)N1 (stereo not drawn) [Example 284, 7-(7-(8-chloronaphthalen-1-yl)-8-fluoro-2-((hexahydro-1H-pyrrolizin-7a-yl)methoxy)pyrido[4,3-d]pyrimidin-4-yl)-1,3,7-triazaspiro[4.5]decan-2-one] | 38 | 41 | 58 | 46 | 45 | 44 | 46 | – | – | –
11 | CNc1cc2n(n1)CCCN(c1nc(OCC34CCCN3CCC4)nc3c(F)c(-c4cccc5cccc(F)c45)ncc13)C2 [Example 263, 5-(8-fluoro-7-(8-fluoronaphthalen-1-yl)-2-((tetrahydro-1H-pyrrolizin-7a(5H)-yl)methoxy)pyrido[4,3-d]pyrimidin-4-yl)-N-methyl-5,6,7,8-tetrahydro-4H-pyrazolo[1,5-a][1,4]diazepin-2-amine] | 1980 | 4030 | 3040 | 4940 | 3550 | 4410 | 9090 | – | – | –
12 | CCc1cccc2cccc(-c3ncc4c(N5CC6C(=O)NC(=O)C6C5)nc(OCC56CCCN5CCC6)nc4c3F)c12 (stereo not drawn) [Example 292, 5-(7-(8-ethylnaphthalen-1-yl)-8-fluoro-2-((hexahydro-1H-pyrrolizin-7a-yl)methoxy)pyrido[4,3-d]pyrimidin-4-yl)tetrahydropyrrolo[3,4-c]pyrrole-1,3(2H,3aH)-dione] | 21 | 61 | 180 | 97 | 26 | 88 | 68 | – | – | –
13 | Cc1ccc(O)cc1-c1ncc2c(N3CCCC(C)(O)C3)nc(OCC34CCCN3CCC4)nc2c1F (stereo not drawn) [Example 432, 1-(8-fluoro-2-((hexahydro-1H-pyrrolizin-7a-yl)methoxy)-7-(5-hydroxy-2-methylphenyl)pyrido[4,3-d]pyrimidin-4-yl)-3-methylpiperidin-3-ol] | 1140 | 1930 | 3040 | 2270 | 2410 | 2410 | 2480 | – | – | –
14 | O=C1NC(=O)C2(COCCN(c3nc(OCC45CCCN4CCC5)nc4c(F)c(-c5cccc6cccc(F)c56)ncc34)C2)N1 (stereo not drawn) [Example 272, 10-(8-fluoro-7-(8-fluoronaphthalen-1-yl)-2-((hexahydro-1H-pyrrolizin-7a-yl)methoxy)pyrido[4,3-d]pyrimidin-4-yl)-7-oxa-1,3,10-triazaspiro[4.6]undecane-2,4-dione] | 194 | 130 | 120 | 138 | 132 | 141 | 116 | – | – | –
15 | CCc1cccc2cccc(-c3ncc4c(N5CCOCC(CO)C5)nc(OCC56CCCN5CCC6)nc4c3F)c12 (stereo not drawn) [Example 289, (4-(7-(8-ethylnaphthalen-1-yl)-8-fluoro-2-((hexahydro-1H-pyrrolizin-7a-yl)methoxy)pyrido[4,3-d]pyrimidin-4-yl)-1,4-oxazepan-6-yl)methanol] | 5610 | 807 | 754 | 607 | 520 | 407 | 818 | – | – | –
16 | Cc1ccc2[nH]ncc2c1-c1ncc2c(N3CCCC(C)(O)C3)nc(OCC34CCCN3CCC4)nc2c1F (stereo not drawn) [Example 430, 1-(8-fluoro-2-((hexahydro-1H-pyrrolizin-7a-yl)methoxy)-7-(5-methyl-1H-indazol-4-yl)pyrido[4,3-d]pyrimidin-4-yl)-3-methylpiperidin-3-ol] | 6450 | 4760 | 8770 | 6820 | 7720 | 7830 | 8050 | – | – | –
17 | CCc1c(F)ccc2cc(O)cc(-c3ncc4c(NCCN5CCNC5=O)nc(OC[C@@]56CCCN5C[C@H](F)C6)nc4c3F)c12 [Example 372, 1-(2-((7-(8-ethyl-7-fluoro-3-hydroxynaphthalen-1-yl)-8-fluoro-2-(((2R,7aS)-2-fluorotetrahydro-1H-pyrrolizin-7a(5H)-yl)methoxy)pyrido[4,3-d]pyrimidin-4-yl)amino)ethyl)imidazolidin-2-one] | 56 | 5 | 13 | – | – | – | – | 660 | ≥ 10000 | –
